Assay [1] has as its system Cyclin E, A, B, D in RPP631 and DMS79. Description: Cyclin expression (western blotting, qRT-PCR). The class given is cell-based, mouse, human. The note with it: 24 hours. As to the method: (§1) Cell pellets were collected and then subjected to total RNA extraction using RNeasy Plus Mini Kit (QIAGEN, Cat #74136) according to the manufacturer's instructions, or using TRIzol:Chloroform phase-separation by centrifugation followed by RNA precipitation using isopropanol. The extracted RNA was reversely transcribed into cDNA using the High-Capacity RNA-to-cDNA™ Kit (Thermo Fisher Scientific, Cat #4387406) according to the manufacturer's instructions. The obtained cDNA samples were diluted and used for RT-qPCR. PowerUp™ SYBR™ Green Master Mix (Thermo Fisher Scientific, Cat #A25742) or TaqMan Gene Expression Master Mix (Life Technologies, Cat #4369514). Gene specific primers with sequences listed in Table 3 were used for PCR amplification and detection on the StepOnePlus™ Real-Time PCR System (Thermo Fisher Scientific). RT-qPCR data were normalized to Actb (mouse cells) or GUSB (human cells) and presented as fold changes of gene expression in the test sample compared to the control.
(§2) Cells in culture were collected by centrifuging at 1,500 rpm and then washed with ice-cold PBS twice to completely remove residual medium. […] Protein concentrations in lysates were measured by Pierce™ BCA Protein Assay Kit (Thermo Fisher Scientific, Cat #23225) and followed by the addition of SDS loading buffer (6×) and heated at 95° C. for 5 min. […]
(In general: In western blotting, separated proteins are transferred to a membrane and probed.)

The subject of the next assay is OT-I CD8^+ T cells. As to the kind of experiment: Ex vivo OT-I T cell assay. The class given is cell-based, mouse. As for the experimental part: The spleen of OT-I mice was minced with a razor and mashed through a 40 µm strainer to form a single-cell suspension. Separated cells were then treated with RBC lysis buffer and a number of 5×10^5 cells were seeded in a 96-well U-bottom plate. For conditioned medium culture assay, RPP631 cells were treated with either DMSO or YKL-5-124 for 48 hr and drug was washed off after first 6-hour treatment. Subsequently, DMSO-conditioned medium or YKL-5-124-conditioned medium were collected and added to above single-cell suspension in a 96-well U-bottom plate in the presence of Ova257-264 peptide (10 μg/ml, GenScript, Cat #RP10611) for 4 days. Alternatively, DMSO or YKL-5-124 was added directly to single-cell suspension in the presence of Ova257-264 peptide for 4 days in the T cell assay medium (complete RPMI with HEPES, sodium pyruvate, MEM nonessential amino acids and 2-mercaptethonal). T cell activation markers CD69, TNFα. and IFNγ were analyzed by flow cytometry.

A further assay concerns the target T1, CDK7 (Mus musculus, UniProt Q03147).
T1 construct: from tissue
Description: In vivo target engagement by competitive pulldown assay. The note with it: 10 mg/kg. As to the method: Bio-THZ1 pulldown experiments followed by western blotting of enriched proteins was performed as described in Kwiatkowski, et al., Nature, 2014, 511, 616-620. Briefly, cells were treated with YKL-5-124 or DMSO for 6 hr (in vitro) or 72 hr (in vivo). Following treatment, cells were washed twice with cold PBS and then lysed in the following lysis buffer: 50 mM TrisHCI pH 8.0, 150 mM NaCl, 1% NP-40, 5 mM EDTA, 1 mM DTT, and protease/phosphatase cocktails. Following clearance, lysates were treated with biotinylated THZ1 for pulldown overnight at 4° C. Lysates were further incubated at room temperature for 3 hr to increase the efficiency of covalent bond formation. Lysates were then incubated with streptavidin agarose for pulldown for an additional 2-3 hr at 4° C. Agarose beads were washed 5 times with lysis buffer and then boiled in 2×SDS at 95° C. SDS-page resolved precipitated proteins were probed for the indicated proteins.

Another assay relates to cGAS-STING pathway. As to the kind of experiment: cGAS-STING pathway analysis (western blotting; cGAS knockout RT-qPCR). The format is cell-based, mouse, human. The note with it: DMS79, RPP631, cGAS knockout RPP631. As to the method:
as §1, §2

The test system of assay [2] is HAP1 cells expressing CDK7 wild-type (WT). As to the kind of experiment: RT-qPCR of TNF and CXCL10 in HAP1 CDK7 WT cells. The class given is cell-based, human. The conditions noted are these: 100 nM, 48 hr. As for the experimental part:
as §1
(In general: Real-time PCR tracks product formation cycle by cycle.)

This note sets out measurements from patent US20230114207A1, “THE COMBINATION OF CYCLIN DEPENDENT KINASE 7 INHIBITOR AND IMMUNOTHERAPY FOR TREATMENT OF CANCER” (Dana-Farber Cancer Institute, Inc., priority 2019, published 2023).

T1 sequence (Q03147 2-346 limits assumed): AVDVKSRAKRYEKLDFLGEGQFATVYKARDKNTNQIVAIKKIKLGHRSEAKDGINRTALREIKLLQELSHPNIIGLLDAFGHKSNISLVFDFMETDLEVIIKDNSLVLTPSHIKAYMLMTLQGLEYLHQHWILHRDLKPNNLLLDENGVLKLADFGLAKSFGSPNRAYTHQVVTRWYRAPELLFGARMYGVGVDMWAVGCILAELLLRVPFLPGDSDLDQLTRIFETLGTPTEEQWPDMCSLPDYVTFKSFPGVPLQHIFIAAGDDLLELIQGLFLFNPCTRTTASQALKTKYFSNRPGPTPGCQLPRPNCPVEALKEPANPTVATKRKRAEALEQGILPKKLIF
T1 sequence (Q61458 whole entry partner): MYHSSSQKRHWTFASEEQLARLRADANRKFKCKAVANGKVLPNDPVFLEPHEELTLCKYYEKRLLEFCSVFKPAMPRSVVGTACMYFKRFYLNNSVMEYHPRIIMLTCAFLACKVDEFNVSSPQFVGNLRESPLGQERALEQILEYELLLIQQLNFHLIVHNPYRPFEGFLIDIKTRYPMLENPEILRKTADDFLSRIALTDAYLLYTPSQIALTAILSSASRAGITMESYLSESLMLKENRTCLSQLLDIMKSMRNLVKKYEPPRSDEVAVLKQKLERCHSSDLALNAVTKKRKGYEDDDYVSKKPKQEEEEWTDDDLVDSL
T1 sequence (P51949 whole entry partner): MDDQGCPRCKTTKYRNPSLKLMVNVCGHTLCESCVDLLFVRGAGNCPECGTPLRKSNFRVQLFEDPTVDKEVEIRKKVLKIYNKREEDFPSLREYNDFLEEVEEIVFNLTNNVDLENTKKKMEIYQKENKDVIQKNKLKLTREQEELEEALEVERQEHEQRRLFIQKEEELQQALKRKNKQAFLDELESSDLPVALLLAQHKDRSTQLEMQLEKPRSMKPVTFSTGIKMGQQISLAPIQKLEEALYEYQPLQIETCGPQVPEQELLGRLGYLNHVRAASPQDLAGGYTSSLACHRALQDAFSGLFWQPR

Take `C=CC(=O)Nc1ccc(C(=O)Nc2n[nH]c3c2CN(C(=O)N[C@H](CN(C)C)c2ccccc2)C3(C)C)cc1` [YKL-5-124]: in assay [1], the “Cyclin E protein and mRNA (CCNE1) levels” value is “increase”; the “expression of Cyclins A (CCNA1), B (CCNB1), and D (CCND1)” value is “remained unchanged”. Moreover, the “CD8^+ T cell activity” value in the assay with OT-I CD8^+ T cells (OT-I T cells directly treated) is given as “No significant effect”. The “percentage of CD69^+, TNFα^+ and IFNγ^+ CD8^+ T cells” value in the assay with OT-I CD8^+ T cells (YKL-5-124-conditioned medium of mouse SCLC cells vs DMSO-conditioned medium) is given as “significant increase”. In addition, the “target engagement in tumor-bearing mice” value on CDK7 is “further confirmed”. Further, the “dependence of the immune stimulatory effect on the cGAS-STING pathway” value in the assay with cGAS-STING pathway was “independent of this pathway”. For the same compound, the “TNF and CXCL10 expression” value in assay [2] is given as “significant increase”.
